Assay results from publication PMC12392461, “Beyond Estrogenicity: A Comparative Assessment of Bisphenol A and Its Alternatives in In Vitro Assays Questions Safety of Replacements” (Environmental Science & Technology, 2025).
Like-named read-outs stand apart in the source and are kept apart here.

Tests used:
Estrogen Receptor ERα = biological target: T1, Estrogen Receptor ERα (Homo sapiens, UniProt P03372); assay: cell-based; details: for EC10, ERα (M): 10% of maximum effect of E2; for REPBPA,ERα (relative effect potency in relation to BPA): EC10,BPA/EC10,BPx; for EC10, linear transformed / EC10, linear / logEC10: dosing range all; for SR-ScoreERα: SR-Score, sigma k=1, x=5; for Efficacy % / EC10 / REPBPA: This Study; for EC10: ERα; for REPBPA: relative estrogenic potency vs BPA; for Specificity ratio (SRbaseline) SRERα: against baseline cytotoxicity; for EC10, ERα: effect; for log(1/EC10) ERα: input of the ToxPi score, values up to 1.00; for Relative effect potency REPERα: relative to BPA; for ERα activation: at noncytotoxic concentrations; for Specificity ratio (SRcytotoxicity) SRERα: against experimental cytotoxicity
T1 sequence (P03372 311-547 limits assumed): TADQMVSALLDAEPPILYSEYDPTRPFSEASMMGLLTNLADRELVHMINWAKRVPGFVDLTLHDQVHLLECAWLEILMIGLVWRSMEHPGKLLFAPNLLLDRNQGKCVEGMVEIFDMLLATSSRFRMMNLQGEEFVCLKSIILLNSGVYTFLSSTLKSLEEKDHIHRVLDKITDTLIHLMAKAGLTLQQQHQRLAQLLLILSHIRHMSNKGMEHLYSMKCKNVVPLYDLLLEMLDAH
Method in brief: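 Reporter cells (ERα-UAS-bla GripTite; PPARγ-UAS-bla) grew 24 h at 37 °C, 5% CO₂ in medium containing 2% charcoal-stripped FBS. Cytotoxicity, tracked as IncuCyte confluency, capped data at IC10 for EC10 derivation. Emax% is the fitted log-logistic maximum expressed against the reference chemical's maximum.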

[1] = tested on: HEK293H, HEK293T, H4IIe, MCF7 and SH-SY5Y cells; details: for cytotoxicity,median REPBPA,IC10: median IC10 relative to BPA; for IC10,Median (M): median cytotoxicity of all cell lines; for IC10, median: median cytotoxicity over all cell lines
Experimental: Cell culture conditions and bioassay protocols including response detection are provided in Text S2.1–2.4 and Table S3. − Cell viability was determined from cell confluency using an IncuCyte S3 Live-Cell Analysis System (Sartorius AG, Essen, Germany) before and after exposure, except for SH-SY5Y cells (live–dead staining with Nuclear Green LcS1 and propidium iodide, Abcam, UK). For metabolic activation experiments, cell viability was assessed using the ToxBLAzer DualScreen Kit (Thermo Fisher Scientific) to capture the remaining toxicity in ERα-UAS-bla GripTite after treatment with the aCYP catalyst (details in Text S2.4).
For ARE, the concentration that triggered an induction ratio of 1.5 (ECIR1.5) was used as the benchmark value, as detailed in Text S2.5. IC10 values also served as a threshold for data analysis in all assays; only concentrations below IC10 were considered when deriving EC10 or ECIR1.5.
TR indicates whether the cytotoxicity is triggered by specific toxicity mechanisms (TR ≥ 10) or not (0.1< TR< 10). 3 TR=IC10,baseline/IC10 We measured the cytotoxicity of BPA and its alternatives in HEK293H (PPARγ), HEK293T (ERα), H4IIe (AhR CALUX), MCF7 (ARE/MMP), and differentiated SH-SY5Y cells (Table S6). […]
medium, supplemented with 2% B-27 Supplement and 2 mM GlutaMAX Supplement. SH - SY5Y cells were differentiated with 10 µM all-trans retinoic acid prior to the assay.
S2.2: Cell Seeding and Incubation. For all bioassays, cell suspensions in the respective assay medium were dispensed into each well of 384-well plates using a MultiFlo Dispenser (Biotek, (now Agilent), Winooski, VT, U.S.). After seeding, the plates were incubated at 37° C and 5% CO₂ for […]. The final cell densities and plate types were as follows: Black poly-D-lysine […]
6500 cells/well, ERα: 5000 cells/well. White 384-well plates with a clear bottom (Product No.
NYC, U.S.) for AhR: 3250 cells/well. Black Collagen I coated plates were used (Product No.
S2.3: Chemical Dosing and Assay Analysis Procedures. The dosing procedure and high-throughput assay workflow have been described in detail before. 9 The dosing concentrations […]
Stock solutions were then either added directly to the respective cell culture medium or evaporated under nitrogen, followed by replenishment with fresh medium. The final solvent content in each well was kept below 1% for methanol, 0% for acetonitrile.
Dosing plates were prepared as 11 -step serial dilutions using a Hamilton Microlab Star robotic system (Hamilton, Bonaduz, Switzerland), and chemicals were dosed in duplicates by transferring 10 μL twice from the dosing plates to the cell plates . After quantifying cell confluency as described in S2. 4., the exposed cells were incubated at 37° C and 5% CO₂ for an additional 24 h. All chemicals were tested in all assays with at least three independent […]
S2.4: Cell Viability Measurement s and bioanalytical protocols . The confluency as a measure of cell viability was determined with an IncuCyte S3 Live -Cell Analysis System (Sartorius AG, Essen, Germany). With this method the confluency of cells in a microscopy image are normalized to control wells without cells and compared before and after 24 hours of exposure.
This method has been described previously 13. Cell viability of SH-SY5Y cells was measured […]
propidium iodide (PI, Abcam, Cambridge, U.K.).14 Nuclear Green LCS1 is a membrane-permeable dye that stains the nuclei of all cells, whereas PI only enters cells with compromised membrane integrity (non-viable cells). After staining, live cells show green nuclei without red fluorescence, while dead cells display both green and red nuclear fluorescence due to PI […]
intercalation. Cell viability was calculated as the proportion of green-only nuclei relative to the […]
For experiments with the preceding aCYP activation, ERα cell viability was additionally calculated from the readout of the ToxBLAzer reagent. The ToxBLAzer assay was conducted following the manufacturer's instructions (Thermo Fisher, Waltham, MA, U.S.).13 Fluorescence

[2] = ERα bioassay, linear model, in M
[3] = ERα bioassay, log-logistic model
[4] = Bioassay ERα, log-logistic model fit
[5] = Bioassay ERα, linear model fit, in M
[6] = read-out: Emax%ERα, maximum efficacy relative to E2

Structure (SMILES) | EC10, ERα (M) (Estrogen Receptor ERα) | SR-ScoreERα (Estrogen Receptor ERα) | Efficacy % (Estrogen Receptor ERα) [%] | EC10 (Estrogen Receptor ERα; in M) | REPBPA (Estrogen Receptor ERα) | Specificity ratio (SRbaseline) SRERα (Estrogen Receptor ERα) | EC10, ERα (Estrogen Receptor ERα) [µM] | log(1/EC10) ERα (Estrogen Receptor ERα) | Relative effect potency REPERα (Estrogen Receptor ERα) | cytotoxicity,median REPBPA,IC10 [1] | IC10,Median (M) [1] | IC10, median [1] [µM] | EC10, linear (Estrogen Receptor ERα; Bioassay ERα, linear model fit) | logEC10 (Estrogen Receptor ERα; [4]) | ERα activation (Estrogen Receptor ERα) | EC10, linear transformed (Estrogen Receptor ERα; Bioassay ERα, in M) | EC10, linear (Estrogen Receptor ERα; [5]) | other results
CC1(C)C(O)C(C)(C)C1O (racemic) [r-TMCD, 2,2,4,4-Tetramethyl-1,3-cyclobutanediol (racemate)] | 1.29 × 10^–2 M | 0.00722 | <20 | 1.29E-02 | 2.88E-05 | 0.08 | 12900 | 0.24 | 2.88e-5 | 0.00844 | 8.29 × 10^–3 M | 8290 | – | – | – | – | – | REPBPA,ERα (relative effect potency in relation to BPA) (Estrogen Receptor ERα): 2.9 × 10^–5; EC10, linear transformed (Estrogen Receptor ERα; ERα bioassay, in M): 1.18E-02; EC10, linear (Estrogen Receptor ERα; [2]): 1.29E-02; logEC10 (Estrogen Receptor ERα; [3]): -1.93
CC(C)(c1ccc(OCC2CO2)cc1)c1ccc(OCC2CO2)cc1 (stereo not drawn) [BADGE, Bisphenol A diglycidyl ether] | – | – | – | – | – | – | – | – | – | 1.82 | 3.85 × 10^–5 M | 38.5 | no effect | no effect | did not activate ERα at noncytotoxic concentrations | – | – | –
CC(C)c1cc(C(C)(C)c2ccc(O)c(C(C)C)c2)ccc1O [BPG, 2,2-Bis(4-hydroxy-3-isopropylphenyl)propane] | 9.02 × 10^–7 M | 0.94 | 19.01 | 9.02E-07 | 4.11E-01 | 1.60 | 0.902 | 0.77 | 0.41 | 8.93 | 7.84 × 10^–6 M | 7.84 | – | -6.04 | – | 9.02E-07 | 9.31E-07 | Specificity ratio (SRcytotoxicity) SRERα (Estrogen Receptor ERα): 7.71; Emax (Estrogen Receptor ERα; [6]): 19%
CC(C)(c1ccc(O)c(-c2ccccc2)c1)c1ccc(O)c(-c2ccccc2)c1 [BPPH, 2,2-Bis(2-hydroxy-5-biphenylyl)propane] | – | – | – | – | – | – | – | – | – | 8.72 | 8.02 × 10^–6 M | 8.02 | no effect | no effect | did not activate ERα at noncytotoxic concentrations | – | – | Emax (Estrogen Receptor ERα; [6]): 0%
C=CCOc1ccc(S(=O)(=O)c2ccc(O)cc2)cc1 [BPS-MAE, 4-[[4-(Allyloxy)phenyl]sulfonyl]phenol] | 1.41 × 10^–5 M | 1.00 | – | 1.41E-05 | 2.63E-02 | – | 14.1 | 0.62 | – | 0.37 | 1.90 × 10^–4 M | 190 | – | -4.90 | – | 1.26E-05 | 1.41E-05 | –
Cc1ccc(S(=O)(=O)NC(=O)Nc2ccc(Cc3ccc(NC(=O)NS(=O)(=O)c4ccc(C)cc4)cc3)cc2)cc1 [BTUM, 4,4'-Bis(p-tolylsulfonylureido)diphenylmethane] | – | – | – | – | – | – | – | – | – | 2.26 | 3.10 × 10^–5 M | 31 | no effect | no effect | did not activate ERα at noncytotoxic concentrations | – | – | –
CC(C)Oc1ccc(S(=O)(=O)c2ccc(O)cc2)cc1 [D8, 4-((4-Isopropoxyphenyl)sulfonyl)phenol] | 1.12 × 10^–5 M | 1.00 | 18.50 | 1.12E-05 | 3.29E-02 | 5.88 | 11.2 | 0.63 | 0.0329 | 0.21 | – | – | – | -4.95 | – | 1.21E-05 | 1.41E-05 | REPBPA,ERα (relative effect potency in relation to BPA) (Estrogen Receptor ERα): 0.033; Specificity ratio (SRcytotoxicity) SRERα (Estrogen Receptor ERα): 16.41; Emax (Estrogen Receptor ERα; read-out: Emax%ERα): 18%
CC(C)(c1cc(Cl)c(O)c(Cl)c1)c1cc(Cl)c(O)c(Cl)c1 [TCBPA, 2,2',6,6'-Tetrachlorobisphenol A] | – | – | – | – | – | – | – | – | – | 0.89 | 7.84 × 10^–5 M | 78.4 | – | – | – | – | – | –
Cc1cc(Cc2cc(C)c(O)c(C)c2)cc(C)c1O [TMBPF, Bis(3,5-dimethyl-4-hydroxyphenyl)methane] | – | – | – | – | – | – | – | – | – | 5.51 | 1.27 × 10^–5 M | 12.7 | no effect | no effect | did not activate ERα at noncytotoxic concentrations | – | – | Emax (Estrogen Receptor ERα; read-out: Emax%ERα): 0%
CC1(C)[C@H](O)C(C)(C)[C@H]1O [Trans TMCD] | – | – | – | – | – | – | – | – | – | – | – | – | – | – | – | – | – | EC10, linear transformed (Estrogen Receptor ERα; ERα bioassay, in M): 3.18E-03; EC10, linear (Estrogen Receptor ERα; [2]): 3.03E-03; logEC10 (Estrogen Receptor ERα; [3]): -2.47
